Assay results from patent US20240319193A1, “CIRCULATING TUMOR CELL DIAGNOSTICS FOR BIOMARKERS PREDICTIVE OF RESISTANCE TO ANDROGEN RECEPTOR (AR) TARGETED THERAPIES” (Epic Sciences, Inc., priority 2014, published 2024).

System: progressive mCRPC patients
Test: Response to AR targeted therapy by baseline CTC AR expression (Epic CTC), Example 1
Type: in vivo, human
Details: pooled AA+P or E patients; for patients with high AR who responded: high baseline AR expression on CTCs, N = 7; for patients with low AR who had a PSA decline and stable radiographic disease: low baseline AR expression on CTCs, N = 14, median follow-up 12 wks
Excerpt: 48 samples from 21 unique progressive mCRPC patients treated with androgen receptor targeted (AR tx) therapies, 9 (43%) on Abiraterone plus Prednisone (AA+P) and 12 (57%) on Enzalutamide (E). Samples were collected and shipped to Epic Sciences, where cells were stained and CTC identified by fluorescent scanners and algorithmic analysis. CTCs, defined as classic (CK+CD45-w/intact DAPI nuclei and distinct), apopotic (CK+, CD45−, non-intact nuclei) and CK− (CK−, CD45-, intact and distinct) were identified. CTCs reported per mL of blood and were examined for AR, PTEN & ERG. CTC data were analyzed in context of PSA, Veridex CTC (reported per 7.5mL of blood), and clinical history.

Compound	patients with high AR who responded [%]	patients with low AR who had a PSA decline and stable radiographic disease [%]
Abiraterone plus Prednisone	0	53
CNC(=O)c1ccc(N2C(=S)N(c3ccc(C#N)c(C(F)(F)F)c3)C(=O)C2(C)C)cc1F [Enzalutamide]	0	53
